US20230364079A1, “COMPOUND AS BRAIN-PERMEABLE BTK OR HER2 INHIBITOR, PREPARATION METHOD THEREFOR, AND USE THEREOF” (CHENGDU HYPERWAY PHARMACEUTICALS CO., LTD., priority 2020, published 2023)
pIC50: −log10 of the molar value. Where a name gives a salt, the structure may show the parent alone. Read-outs that look alike come from different tables or passages of the source.

Tests used:
[1] = Liver microsome metabolic stability test, rat; type: in vitro ADME; conditions: for half-life: liver microsomes, 0.5 mg/mL protein, read-out: T½
Method: (§1) 1: To the sample wells of T0, T5, T10, T20, T30, T60 and NCF60, 10 µL of the test or reference working solution and 80 µL of microsome working solution (hepatic microsome with a protein concentration of 0.5 mg/mL) were added, and to Blank60 well, only the microsome working solution was added. Then samples of the Blank60, T5, T10, T20, T30 and T60 other than T0 and NCF60 were placed in a 37° C. water bath and pre-incubated for about 10 min.
(§2) 2: To the T0 sample well, 300 µL of stop solution (containing 200 ng/mL tolbutamide and 200 ng/mL labetalol in acetonitrile solution) was added first, followed by 10 µL of NADPH regeneration system working solution.
(§3) 3: After the pre-incubation of Blank60, T5, T10, T20, T30 and T60 incubation plates, 10 µL of NADPH regeneration system working solution was added to each sample well to start the reaction, and 10 µL of 100 mM potassium phosphate buffer was added to the NCF60 sample well.
(§4) 4: After incubation for an appropriate time (such as 5, 10, 20, 30 and 60 min), to each test sample well and control well of the Blank60, T5, T10, T20, T30, T60 and NCF60 plates, 300 µL of stop solution was added to terminate the reaction.
(§5) 5: All sample plates were shaken to mix well and centrifuged at 4000 rpm for 20 min, and 100 µL of the supernatant of the test sample or control sample was taken and diluted with 300 µL of pure water for LC-MS/MS analysis.
(§6) 6: Data analysis: T½ and CLint(mic) (µL/min/mg) values were calculated according to the first-order elimination kinetics. The first-order elimination kinetics equation was: […]

BTK wild-type kinase = BTK wild-type kinase (Homo sapiens (Human), UniProt Q06187); test: BTK kinase activity inhibition test in vitro (Caliper EZ Reader); type: biochemical
Summary of the method: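 Compound (10 mM DMSO stock) preincubated with kinase 10 min at room temperature, then ATP plus kinase substrate 2 added, 10 min reaction at room temperature before stop. Substrate conversion read by Caliper mobility shift; inhibition normalised to no-enzyme and no-compound controls, IC50 by variable-slope log(inhibitor) fit.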

[2] = test system: TMD8 mouse subcutaneous xenograft tumor; test: TMD8 pharmacodynamic model test (mouse subcutaneous xenograft tumor); type: in vivo; conditions: same dose of 10 mg/kg, FIG. 1
Method: Test Example 7: TMD8 Pharmacodynamic Model Test
Human diffuse large B-cell lymphoma TMD8 cells were monolayer-cultured in vitro in RPMI1640 medium with 10% fetal bovine serum, 100 U/mL penicillin and 100 µg/mL streptomycin, in a 37° C., 5% CO2 incubator. Routine digestion with trypsin-EDTA was performed twice a week for passaging. When the cell density was 80%-90% and the number reached the requirement, cells were harvested, counted and inoculated. 0.2 ml (1×10^7 cells) of TMD8 cells (added with matrigel at a volume ratio of 1:1) were subcutaneously inoculated on the right back of each mouse. The mice were administered in groups when the average tumor volume reached about 137 mm^3. Tumor diameters were measured twice a week with vernier calipers. The tumor volume was calculated by the formula V = 0.5 a × b^2, where a and b represent the long and short diameters of the tumor, respectively.

[3] = Liver microsome metabolic stability test, human; type: in vitro ADME; conditions: for half-life: liver microsomes, 0.5 mg/mL protein, read-out: T½
Method: as §1, §2, §3, §4, §5, §6

[4] = target: BTK mutation-type C481S kinase (Homo sapiens (Human), UniProt Q06187, C481S); test: BTK-C481S kinase activity inhibition test in vitro (Caliper EZ Reader); type: biochemical
Method: In the tests on the activity of inhibiting BTK and HER2 kinase in vitro in the examples of the present disclosure, powder of the compound was dissolved in 100% DMSO to prepare a 10 mM stock solution and stored at-20° C. in the dark. […] In addition, the compounds were subjected to experiments such as liver microsome metabolic stability, rat PK, rat brain penetration rate, and drug efficacy model in the examples of the present disclosure.
Compound powders were dissolved in 100% DMSO to make 10 mM stock solutions, which were stored at -20° C. in the dark.
2: Kinase Reaction Process
(1) Preparation of 1 × Kinase buffer.
(5) After centrifugation at 1000 rpm for 30 seconds, the reaction plate was shaken to mix well and incubated at room temperature for 10 min.
(6) A 5/3-fold final concentration of a mixed solution of ATP and Kinase substrate 2 was prepared with 1 × Kinase buffer.
(7) 15 µL of the mixed solution of ATP and substrate with 5/3-fold final concentration was added to start the reaction.
(8) The 384-well plate was centrifuged at 1000 rpm for 30 seconds, shaken to mix well, and incubated at room temperature for 10 min.
(9) 30 µL of a stop solution was added to stop the kinase reaction, and after centrifugation at 1000 rpm for 30 seconds, the plate was shaken to mix well;
(10) The conversion rate was read with Caliper EZ Reader.
where Conversion%_sample indicates the conversion rate reading of the sample; Conversion%_min is the average reading of the negative control wells, representing the conversion rate reading of the wells without enzyme activity; Conversion%_max is the average reading of the ratio of the positive control wells, representing the conversion rate reading of the wells without compound inhibition.
Dose-Response Curve Fitting
With the log value of the concentration as the X-axis, and the percentage inhibition rate as the Y-axis, the dose-effect curve was fitted using the log(inhibitor) vs. response-Variable slope of the analysis software GraphPad Prism 5, so as to determine the IC50 value of each compound on the enzyme activity.
The calculation formula was: […]

[5] = Pharmacokinetic test, oral, SD rats; type: in vivo; conditions: oral 10 mg/kg, plasma; for AUC(0-inf) / Cmax / half-life: rat; for Cmax: read-out: Cmax; for half-life: read-out: T½ (converted)
Method: Each test compound was administered orally (10 mg/kg, 3 rats in each group) to SD rats for pharmacokinetic study. […] Animals were fasted overnight before oral administration, and fed again after 4 h of administration. […] At each collection time point, 3 whole blood samples were collected at a the collection volume of about 0.2-0.3 mL. […] The collected plasma was stored at -20° C. before analysis. 20 µL of plasma sample was added into a 1.6 mL 96-well deep-well plate, added with 200 µL of working internal standard solution (the same volume of vehicle was added to the blank instead of internal standard), vortexed for 1 min, and centrifuged at 5800 rpm for 10 min. 100 µL of the supernatant was added to a 96-well injection plate for LC-MS/MS analysis.

[6] = Blood-brain barrier permeability test, SD rats (plasma, cerebrospinal fluid, brain tissue); type: in vivo; conditions: oral single dose 10 mg/kg
Method: Test Example 6: Blood-brain Barrier Permeability Test
Each test compound was administered orally at a single dose of 10 mg/kg to SD rats for pharmacokinetic study. Each group included 9 rats. The test compound was dissolved in 5% DMSO+10% solutol+85% saline, vortexed for 1-2 min, and ultrasonicated for 5-10 min to prepare into a colorless, transparent and clear administration solution. Animals were fasted overnight before administration. 1 h, 2 h, and 4 h after administration, three SD rats were selected from each group to take about 0.2-0.3 mL of blood through their orbit. The blood sample was placed on ice once collected, and centrifuged to separate the plasma within 15 min (centrifugation conditions: 8000 rpm, 1 min, room temperature). The collected plasma was stored at -20° C. before analysis. Immediately after blood collection, the cerebrospinal fluid and brain tissue were collected. The cerebrospinal fluid was draw out by dural puncture with a micro-sampler syringe under direct vision. Namely, about 100 µl of cerebrospinal fluid was collected with a 100 µl micro sample syringe from the rat that was anesthetized by chloral hydrate, with the head-fixed, the back hair-cut off, a transverse incision (2 cm) made at the line connecting the roots of the two ears, and the muscle layer of the neck and skull base bluntly scraped to expose the foramen magnum. The cerebrospinal fluid was stored at -20° C. before analysis. The rat then was sacrificed immediately, with its head cut off. The dissected brain tissue, with the surface capillaries peeled off, was weighed, added with 3 times the amount of cold saline, homogenized by a homogenizer for 1 min, and stored at -20° C. before analysis. 20 µL of plasma sample and brain homogenate sample was respectively added into 200 µL of working internal standard solution (the same volume of vehicle was added to the blank instead of internal standard), vortexed for 1 min, and centrifuged at 13500 rpm for 10 min. 100 µL of the supernatant was taken and analyzed by LC-MS/MS. 20 µL of the cerebrospinal fluid was added into 60 µL of working internal standard solution (the same volume of vehicle, instead of internal standard, was added to the blank), vortexed for 1 min, and centrifuged at 13500 rpm for 10 min. 50 µL of the supernatant was taken and analyzed by LC-MS/MS.

[7] = test system: relapsed/refractory central nervous system lymphoma; conditions: cited from earlier work; for ORR / PFS: patients
[8] = test system: DOHH-2-luc tumor cells in the mouse brain; test: DOHH-2-Luc intracerebral tumor drug efficacy model test; type: in vivo; conditions: DOHH-2-Luc intracerebral model, same dose, FIG. 4
Method: Test Example 8: DOHH-2-Luc Intracerebral Tumor Drug Efficacy Model Test
DOHH-2-luc tumor cells were cultured in vitro with RPMI 1640 medium containing 10% fetal bovine serum and 500 ng/mL puromycin in a 37° C., 5% CO2 incubator. […] Tumor cells in logarithmic growth phase were used for inoculation of tumors in vivo.
2. Inoculation of Tumor Cell and Grouping
After the animal was anesthetized by intramuscular injection of Zoletil, it was fixed on the operating table in a prone position. The skin on the top of the head was disinfected with iodine and 75% alcohol respectively, and the skin was cut about 0.5 cm along the midline of the head to expose the coronal and sagittal lines. Being located about 0.5-1.0 mm above the coronal line and about 2 mm to the right of the sagittal line by using a brain locator, a hole was drilled with a 1 mL syringe needle. The micro-injector was inserted vertically to a depth of 3 mm at the location, slowly (about 1 min) injected with 3 × 10^5 DOHH-2-luc tumor cells /2 µL suspension and kept for 1 min. After pulling out the needle, the needle hole was quickly sealed with bone wax, and the wound was sutured with a stapler. About the 7th day after tumor inoculation, the animals were randomly divided into 5 groups according to the body weight of the animals and the optical signal intensity of the tumor site, with 5 animals in each group.
The mice were imaged 1-2 times a week according to their state using the small animal in vivo imaging system IVIS Lumina III (Perkin Elmer). The bioluminescence imaging (BLI, unit: photons/s) signal intensity at the tumor cell inoculation site of mouse was monitored as the main indicator for evaluating tumor growth and drug efficacy. The specific operation is as follows:
The mice were intraperitoneally injected with D-luciferin (15 mg/mL, 5 µL/g according to the body weight of the experimental animal), and then inhaled anesthetized with 1%-2% isoflurane. 10 min after the injection of D-luciferin, the animals were imaged with IVIS Lumina III. The data were analyzed and processed using Living Image software (Perkin Elmer), and the optical signal intensity in ROI (regions of interest) of each animal was calculated.

BTK wild-type kinase, sequence (Q06187 whole entry): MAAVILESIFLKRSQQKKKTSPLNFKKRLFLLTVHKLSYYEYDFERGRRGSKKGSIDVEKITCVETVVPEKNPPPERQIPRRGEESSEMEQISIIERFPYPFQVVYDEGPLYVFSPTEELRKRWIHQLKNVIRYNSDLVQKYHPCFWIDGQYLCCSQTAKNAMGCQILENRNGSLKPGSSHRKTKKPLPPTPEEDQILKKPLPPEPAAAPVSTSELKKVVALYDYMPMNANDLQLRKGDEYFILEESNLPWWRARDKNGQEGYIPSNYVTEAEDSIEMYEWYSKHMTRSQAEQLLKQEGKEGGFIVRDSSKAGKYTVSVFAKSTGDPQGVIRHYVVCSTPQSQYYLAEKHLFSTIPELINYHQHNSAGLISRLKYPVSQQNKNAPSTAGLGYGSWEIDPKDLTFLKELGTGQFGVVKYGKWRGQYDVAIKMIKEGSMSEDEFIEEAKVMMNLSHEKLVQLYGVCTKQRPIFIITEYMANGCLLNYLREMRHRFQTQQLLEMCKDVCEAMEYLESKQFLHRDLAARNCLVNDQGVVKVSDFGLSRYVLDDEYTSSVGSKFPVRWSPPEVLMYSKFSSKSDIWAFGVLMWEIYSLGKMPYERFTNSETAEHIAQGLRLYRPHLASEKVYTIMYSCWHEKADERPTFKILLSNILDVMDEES
BTK mutation-type C481S kinase, sequence (Q06187 whole entry C481S): as the sequence (Q06187 whole entry) above, with C481S counted along it

SMILES | %Remaining (60 min) [1] [%] | half-life [1] [h] | pIC50 (BTK wild-type kinase) | %Remaining (60 min) [3] [%] | half-life [3] [h] | pIC50 [4] | Cl [5] [mL/min/kg] | AUC(0-inf) [5] [ng·h/mL] | Cmax [5] [ng/mL] | half-life [5] [h] | other results
COc1cccc(Oc2ccc(-c3nc(C4CCC(CO)OC4)n4ccnc(N)c34)cc2)c1C#N (single isomer, unassigned) [Compound 89-P1] | 61.0 | 1.47 | > 8.30 | 100.4 | > 2.42 | > 8.30 | 20.53 | 8120 | 2980 | 1.16 | inhibitory effect against the tumor compared with ARQ-531 and ibrutinib [2]: significantly better inhibitory effect against the tumor
Nc1nccn2c(C3CCC(CO)OC3)nc(-c3ccc(Cc4ccccc4)cc3)c12 (stereo not drawn) [Compound 106] | 39.1 | 0.782 | > 8.30 | 66.3 | 1.76 | > 8.30 | 64.75 | 2580 | 1220 | 1.87 | 
Nc1nccn2c(C34CCC(CO)(CC3)OC4)nc(-c3ccc(C(F)(F)c4cccc(F)c4Cl)cc3)c12 [Compound 146] |  |  |  |  |  |  |  |  |  |  | Brain tissue/plasma ([6]; 1 h): 78%; Cerebrospinal fluid/plasma ([6]; 1 h): 7.2%; Drug concentration in brain tissue ([6]; 1 h): 296 ng/g; Drug concentration in cerebrospinal fluid ([6]; 1 h): 27.4 ng/mL; Plasma drug concentration ([6]; 1 h): 380 ng/mL; Brain tissue/plasma ([6]; 4 h): 110%; Cerebrospinal fluid/plasma ([6]; 4 h): 9.2%; Drug concentration in brain tissue ([6]; 4 h): 410 ng/g; Drug concentration in cerebrospinal fluid ([6]; 4 h): 34.3 ng/mL; Plasma drug concentration ([6]; 4 h): 373 ng/mL
CC#CC(=O)N1CC[C@@H](n2c(=O)n(-c3ccc(Oc4ccccc4)cc3)c3c(N)ncnc32)C1 [Velexbru, Tirabrutinib hydrochloride] |  |  |  |  |  |  |  |  |  |  | patients who achieved effective remission ([7]; relapsed or refractory PCNSL patients): 52.9%

More lines, main results first:

%Remaining (60 min) [1] [%] | half-life [1] [h] | pIC50 (BTK wild-type kinase) | %Remaining (60 min) [3] [%] | half-life [3] [h] | pIC50 [4] | Cl [5] [mL/min/kg] | AUC(0-inf) [5] [ng·h/mL] | Cmax [5] [ng/mL] | half-life [5] [h] | SMILES | other results
46 | 0.887 | > 8.30 | 73.5 | 2.12 | > 8.30 | 17.83 | 9630 | 1780 | 3.15 | Nc1nccn2c(C3CCC(CO)OC3)nc(-c3ccc(C(F)(F)c4ccccc4)cc3)c12 (stereo not drawn) [Compound 111] | 
37.0 | 0.702 |  | 66.3 | 1.77 |  | 189.92 | 965 | 920 | 0.33 | CC#CC(=O)N1CC[C@@H](n2c(=O)n(-c3ccc(Oc4ccccc4)cc3)c3c(N)ncnc32)C1 [Tirabrutinib, reference compound] | ORR ([7]; 320 mg QD): 60%; PFS ([7]; 320 mg QD): 2.1 months; ORR ([7]; 480 mg QD (fasting condition)): 52.9%; PFS ([7]; 480 mg QD (fasting condition)): 5.8 months; ORR ([7]; 480 mg QD): 100%; PFS ([7]; 480 mg QD): 11.1 months; tumor size in the brain by fluorescence image [8]: large red areas
